The record followed here is ChEMBL document CHEMBL1201862, “PubChem BioAssay data set” (2004).

“And” between values parts separate entries of the source, which are not always exact repeats. Equal values may be shown once. The source made the active and inactive calls. Bounds are passed on as bounds.

As usually defined, the IC50 is the midpoint of a concentration-inhibition curve. The AC50 is the concentration at which the activity in the assay is half-maximal. In general, CC50 refers to the concentration that lowers cell viability or growth by half. In general, EC50 refers to the concentration that produces a half-maximal response. High values mean lower potency in that assay, low ones higher potency in that assay.

For test [1], the target named is T1, Mannose-6-phosphate isomerase (Homo sapiens, UniProt P34949).
T1 sequence (P34949 whole entry): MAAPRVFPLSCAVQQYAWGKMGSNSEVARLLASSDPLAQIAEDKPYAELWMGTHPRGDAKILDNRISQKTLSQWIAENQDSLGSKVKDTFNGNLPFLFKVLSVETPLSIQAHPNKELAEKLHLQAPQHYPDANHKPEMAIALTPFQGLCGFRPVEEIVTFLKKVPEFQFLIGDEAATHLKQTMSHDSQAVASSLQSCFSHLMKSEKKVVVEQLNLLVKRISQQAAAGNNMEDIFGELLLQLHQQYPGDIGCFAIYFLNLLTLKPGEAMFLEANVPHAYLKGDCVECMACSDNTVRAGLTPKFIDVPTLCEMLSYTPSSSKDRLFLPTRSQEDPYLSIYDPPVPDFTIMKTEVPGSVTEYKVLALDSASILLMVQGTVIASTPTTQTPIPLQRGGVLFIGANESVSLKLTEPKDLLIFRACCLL
Nature of the test: inhibitors of human PMI, primary screen, biochemical, fluorescence intensity, coupled assay (AID 1209).

Test [2] deals with T1, Mannose-6-phosphate isomerase. Nature of the test: human PMI inhibitors, high substrate, primary screen, biochemical, fluorescence intensity, high mannose 6-phosphate (AID 1220).
Test [3] addresses T2, Sentrin-specific protease 8 (Homo sapiens, UniProt Q96LD8).
T2 sequence (Q96LD8 whole entry): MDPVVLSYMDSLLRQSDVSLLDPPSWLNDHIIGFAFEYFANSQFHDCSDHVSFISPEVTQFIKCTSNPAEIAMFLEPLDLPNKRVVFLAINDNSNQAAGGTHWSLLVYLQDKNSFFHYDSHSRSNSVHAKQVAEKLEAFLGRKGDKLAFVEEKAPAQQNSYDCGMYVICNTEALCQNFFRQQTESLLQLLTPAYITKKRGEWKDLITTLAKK
Nature of the test: SENP8 protease inhibitors, SAR follow-up, biochemical, luminescence (AID 504501). The test is classed as functional.

A further test concerns the target T3, Caspase-3 (Homo sapiens, UniProt P42574).
T3 sequence (P42574 whole entry): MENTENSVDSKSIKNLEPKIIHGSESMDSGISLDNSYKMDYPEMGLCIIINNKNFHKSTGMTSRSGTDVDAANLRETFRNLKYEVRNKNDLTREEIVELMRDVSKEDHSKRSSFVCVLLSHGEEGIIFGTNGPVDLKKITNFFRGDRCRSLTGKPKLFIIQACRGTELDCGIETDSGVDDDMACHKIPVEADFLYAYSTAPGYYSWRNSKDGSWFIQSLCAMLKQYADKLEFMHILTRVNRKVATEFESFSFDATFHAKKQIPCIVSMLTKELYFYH
Description: SAR Analysis of small molecule inhibitors of Sentrin-specific proteases (SENPs) using a Caspase-3 Selectivity assay. [Related pubchem assays (depositor defined):AID2540, AID2599, AID434973, AID489001]. The test is classed as functional.

In test [4] the target is T4, Sentrin-specific protease 6 (Homo sapiens, UniProt Q9GZR1).
T4 sequence (Q9GZR1 whole entry): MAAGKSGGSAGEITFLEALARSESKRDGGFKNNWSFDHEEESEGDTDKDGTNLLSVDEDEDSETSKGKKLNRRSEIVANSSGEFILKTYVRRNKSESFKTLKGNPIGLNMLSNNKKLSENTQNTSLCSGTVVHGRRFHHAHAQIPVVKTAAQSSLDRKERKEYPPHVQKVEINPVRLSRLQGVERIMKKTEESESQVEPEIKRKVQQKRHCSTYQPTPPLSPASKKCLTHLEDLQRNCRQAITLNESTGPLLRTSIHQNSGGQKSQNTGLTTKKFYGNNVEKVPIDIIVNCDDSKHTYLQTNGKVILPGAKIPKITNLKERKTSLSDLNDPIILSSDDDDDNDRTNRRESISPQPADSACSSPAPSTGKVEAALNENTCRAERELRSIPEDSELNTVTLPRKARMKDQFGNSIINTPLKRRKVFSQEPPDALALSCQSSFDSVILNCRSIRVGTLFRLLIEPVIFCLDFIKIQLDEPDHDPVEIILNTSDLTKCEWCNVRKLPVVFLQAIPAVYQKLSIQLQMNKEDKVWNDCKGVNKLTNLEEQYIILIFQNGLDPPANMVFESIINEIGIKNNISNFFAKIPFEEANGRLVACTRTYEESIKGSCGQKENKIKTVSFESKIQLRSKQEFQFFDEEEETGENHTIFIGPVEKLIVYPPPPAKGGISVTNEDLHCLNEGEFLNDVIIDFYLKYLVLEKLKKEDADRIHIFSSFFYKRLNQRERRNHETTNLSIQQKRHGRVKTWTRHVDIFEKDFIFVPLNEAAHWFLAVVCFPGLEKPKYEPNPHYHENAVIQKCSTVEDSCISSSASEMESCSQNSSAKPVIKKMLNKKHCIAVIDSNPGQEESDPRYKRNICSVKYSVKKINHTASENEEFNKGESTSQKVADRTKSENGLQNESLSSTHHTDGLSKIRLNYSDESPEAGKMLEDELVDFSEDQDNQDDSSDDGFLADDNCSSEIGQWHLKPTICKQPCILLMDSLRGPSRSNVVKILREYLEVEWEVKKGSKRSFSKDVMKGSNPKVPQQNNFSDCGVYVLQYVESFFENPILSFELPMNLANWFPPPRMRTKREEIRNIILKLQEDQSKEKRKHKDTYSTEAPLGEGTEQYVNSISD
Description: SAR Analysis of small molecule inhibitors of Sentrin-specific protease 6 (SENP6) using a Luminescent assay. [Related pubchem assays (depositor defined):AID2582, AID2599]. It counts as functional.

Test [5] concerns the target T5, Sentrin-specific protease 7 (Homo sapiens, UniProt Q9BQF6).
T5 sequence (Q9BQF6 whole entry): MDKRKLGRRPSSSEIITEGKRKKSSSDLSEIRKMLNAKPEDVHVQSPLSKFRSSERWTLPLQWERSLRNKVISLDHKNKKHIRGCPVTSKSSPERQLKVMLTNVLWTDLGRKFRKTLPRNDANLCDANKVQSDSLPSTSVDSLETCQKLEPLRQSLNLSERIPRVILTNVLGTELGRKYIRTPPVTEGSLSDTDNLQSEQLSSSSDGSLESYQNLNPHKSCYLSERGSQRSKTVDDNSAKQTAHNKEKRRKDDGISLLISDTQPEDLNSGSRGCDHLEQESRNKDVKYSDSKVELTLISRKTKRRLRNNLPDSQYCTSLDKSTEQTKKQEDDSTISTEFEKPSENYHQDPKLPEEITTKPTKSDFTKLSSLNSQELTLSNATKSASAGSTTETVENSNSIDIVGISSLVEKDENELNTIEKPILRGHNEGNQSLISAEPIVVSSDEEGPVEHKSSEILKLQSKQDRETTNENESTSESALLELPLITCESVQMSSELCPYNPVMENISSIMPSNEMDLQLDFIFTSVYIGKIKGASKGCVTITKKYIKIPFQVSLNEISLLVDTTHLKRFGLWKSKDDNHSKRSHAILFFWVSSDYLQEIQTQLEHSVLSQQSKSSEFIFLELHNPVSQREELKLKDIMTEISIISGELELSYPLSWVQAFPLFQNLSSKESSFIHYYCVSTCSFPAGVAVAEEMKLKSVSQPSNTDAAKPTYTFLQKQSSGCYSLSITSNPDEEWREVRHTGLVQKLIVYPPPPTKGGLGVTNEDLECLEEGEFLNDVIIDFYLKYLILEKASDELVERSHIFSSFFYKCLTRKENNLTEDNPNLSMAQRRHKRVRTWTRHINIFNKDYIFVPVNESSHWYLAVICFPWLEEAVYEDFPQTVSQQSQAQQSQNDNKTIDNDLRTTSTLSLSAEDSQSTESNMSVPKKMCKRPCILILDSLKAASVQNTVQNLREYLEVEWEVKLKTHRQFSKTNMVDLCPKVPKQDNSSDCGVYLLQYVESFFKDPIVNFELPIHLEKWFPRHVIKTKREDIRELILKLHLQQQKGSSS
Description: SENP7 protease inhibitors, SAR follow-up, biochemical, luminescence (AID 504497). It counts as functional.

Another test deals with Cytochrome P450 3A4 (Homo sapiens, UniProt P08684). The following applies: Potency.
The target of another test is Cytochrome P450 2C9 (Homo sapiens, UniProt P11712). The following applies: Potency.
Test [6] deals with Glyceraldehyde-3-phosphate dehydrogenase (Homo sapiens, UniProt P04406).
Test [7] is described as follows: HEp-2 cell cytotoxicity, dose response, cytotoxicity control for RSV inhibitor project, HTS (AID 2410). The test is classed as functional. Conditions: human respiratory syncytial virus.
For test [8], the target named is T6, Alkaline phosphatase, tissue-nonspecific isozyme (Homo sapiens, UniProt P05186).
T6 sequence (P05186 whole entry): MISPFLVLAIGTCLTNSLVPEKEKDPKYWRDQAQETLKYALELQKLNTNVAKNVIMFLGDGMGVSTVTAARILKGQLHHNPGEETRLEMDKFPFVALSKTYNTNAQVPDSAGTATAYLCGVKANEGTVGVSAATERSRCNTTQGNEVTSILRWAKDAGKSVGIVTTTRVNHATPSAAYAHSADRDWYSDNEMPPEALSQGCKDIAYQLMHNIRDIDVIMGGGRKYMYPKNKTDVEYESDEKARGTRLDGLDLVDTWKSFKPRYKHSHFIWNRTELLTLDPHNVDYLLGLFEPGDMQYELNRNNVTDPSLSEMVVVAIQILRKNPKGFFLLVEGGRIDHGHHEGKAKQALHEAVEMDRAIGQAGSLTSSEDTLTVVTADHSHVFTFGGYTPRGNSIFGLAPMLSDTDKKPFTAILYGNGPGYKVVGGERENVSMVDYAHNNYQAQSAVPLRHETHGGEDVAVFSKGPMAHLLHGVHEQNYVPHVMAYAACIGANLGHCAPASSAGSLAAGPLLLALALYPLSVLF
Description: human TNAP enzyme inhibitors, SAR follow-up, biochemical, luminescent, dose response (AID 1056).

The target of the next test is T7, Estrogen receptor (Homo sapiens, UniProt P03372).
T7 sequence (P03372 whole entry): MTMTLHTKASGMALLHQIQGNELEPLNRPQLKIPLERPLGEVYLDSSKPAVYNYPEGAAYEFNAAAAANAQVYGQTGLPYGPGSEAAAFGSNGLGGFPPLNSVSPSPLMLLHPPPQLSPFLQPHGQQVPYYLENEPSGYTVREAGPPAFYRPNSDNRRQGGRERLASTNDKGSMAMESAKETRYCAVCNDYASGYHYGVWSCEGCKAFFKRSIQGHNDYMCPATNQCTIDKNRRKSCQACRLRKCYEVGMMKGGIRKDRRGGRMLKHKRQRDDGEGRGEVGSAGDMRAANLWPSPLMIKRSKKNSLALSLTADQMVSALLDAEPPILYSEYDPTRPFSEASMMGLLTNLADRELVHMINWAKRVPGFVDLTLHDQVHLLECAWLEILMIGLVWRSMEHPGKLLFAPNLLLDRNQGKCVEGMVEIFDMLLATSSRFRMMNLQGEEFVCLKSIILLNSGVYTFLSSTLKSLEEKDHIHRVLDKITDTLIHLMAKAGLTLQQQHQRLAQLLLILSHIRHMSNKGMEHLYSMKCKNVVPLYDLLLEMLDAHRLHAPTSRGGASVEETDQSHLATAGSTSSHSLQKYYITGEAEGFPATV

Test [9] concerns the target Peroxisome proliferator-activated receptor gamma/Nuclear receptor coactivator 2 (Homo sapiens, UniProt P37231). The test is classed as functional.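 Further: agonist potency for raising coactivator recruitment to the receptor.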
The target in test [10] is Peroxisome proliferator-activated receptor gamma/Nuclear receptor coactivator 1 (Homo sapiens, UniProt P37231). It counts as functional.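 Further: agonist potency as compounds enhance coactivator SRC-1 recruitment to PPARgamma.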
The target in test [11] is Peroxisome proliferator-activated receptor gamma/Nuclear receptor coactivator 3 (Homo sapiens, UniProt P37231). The test is classed as functional.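 Further: agonist potency for raising coactivator recruitment to the receptor.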
The target of test [12] is T8, Estrogen receptor beta (Homo sapiens, UniProt Q92731).
Test [13] addresses T8, Estrogen receptor beta. Description: ERβ–SRC-3 coactivator interaction inhibitors, confirmation, orthogonal assay, biochemical, ELISA, streptavidin-HRP readout (AID 1060).

Chain of Glyceraldehyde-3-phosphate dehydrogenase (P04406 whole entry): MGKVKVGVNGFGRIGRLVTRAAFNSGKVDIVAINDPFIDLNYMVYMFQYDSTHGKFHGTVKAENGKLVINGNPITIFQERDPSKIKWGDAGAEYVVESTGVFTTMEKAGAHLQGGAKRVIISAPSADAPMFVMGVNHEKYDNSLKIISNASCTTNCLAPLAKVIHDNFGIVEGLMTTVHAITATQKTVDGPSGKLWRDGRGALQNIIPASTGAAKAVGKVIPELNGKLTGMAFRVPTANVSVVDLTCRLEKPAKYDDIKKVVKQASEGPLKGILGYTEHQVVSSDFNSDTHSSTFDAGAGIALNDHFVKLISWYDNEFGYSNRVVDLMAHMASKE
T8 sequence (Q92731 whole entry): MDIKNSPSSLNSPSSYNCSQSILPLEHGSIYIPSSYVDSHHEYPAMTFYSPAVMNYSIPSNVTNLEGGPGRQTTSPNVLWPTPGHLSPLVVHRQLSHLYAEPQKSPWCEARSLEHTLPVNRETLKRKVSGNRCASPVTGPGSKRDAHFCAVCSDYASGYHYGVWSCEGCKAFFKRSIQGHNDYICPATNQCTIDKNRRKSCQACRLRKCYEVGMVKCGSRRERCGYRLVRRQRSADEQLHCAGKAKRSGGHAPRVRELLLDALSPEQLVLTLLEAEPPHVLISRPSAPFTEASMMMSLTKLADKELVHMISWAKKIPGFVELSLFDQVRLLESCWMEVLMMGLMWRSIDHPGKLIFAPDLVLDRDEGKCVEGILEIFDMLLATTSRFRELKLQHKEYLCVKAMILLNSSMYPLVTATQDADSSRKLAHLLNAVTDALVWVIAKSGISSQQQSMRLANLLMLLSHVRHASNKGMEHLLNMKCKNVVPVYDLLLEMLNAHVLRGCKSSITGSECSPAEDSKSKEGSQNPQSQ
Chain of Cytochrome P450 3A4 (P08684 whole entry): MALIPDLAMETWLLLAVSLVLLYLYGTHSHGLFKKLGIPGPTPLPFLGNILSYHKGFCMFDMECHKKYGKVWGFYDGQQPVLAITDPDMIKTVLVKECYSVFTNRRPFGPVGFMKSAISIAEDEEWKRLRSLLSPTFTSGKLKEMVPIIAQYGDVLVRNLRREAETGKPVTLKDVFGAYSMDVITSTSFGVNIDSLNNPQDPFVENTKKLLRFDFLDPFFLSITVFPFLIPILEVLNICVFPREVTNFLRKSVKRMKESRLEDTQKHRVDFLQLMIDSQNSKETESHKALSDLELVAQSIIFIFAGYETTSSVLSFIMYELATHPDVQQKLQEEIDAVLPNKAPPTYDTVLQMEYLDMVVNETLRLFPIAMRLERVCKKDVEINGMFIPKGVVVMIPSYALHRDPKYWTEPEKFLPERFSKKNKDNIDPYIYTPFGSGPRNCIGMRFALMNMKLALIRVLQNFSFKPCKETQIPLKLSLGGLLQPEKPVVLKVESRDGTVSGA
Chain of Cytochrome P450 2C9 (P11712 whole entry): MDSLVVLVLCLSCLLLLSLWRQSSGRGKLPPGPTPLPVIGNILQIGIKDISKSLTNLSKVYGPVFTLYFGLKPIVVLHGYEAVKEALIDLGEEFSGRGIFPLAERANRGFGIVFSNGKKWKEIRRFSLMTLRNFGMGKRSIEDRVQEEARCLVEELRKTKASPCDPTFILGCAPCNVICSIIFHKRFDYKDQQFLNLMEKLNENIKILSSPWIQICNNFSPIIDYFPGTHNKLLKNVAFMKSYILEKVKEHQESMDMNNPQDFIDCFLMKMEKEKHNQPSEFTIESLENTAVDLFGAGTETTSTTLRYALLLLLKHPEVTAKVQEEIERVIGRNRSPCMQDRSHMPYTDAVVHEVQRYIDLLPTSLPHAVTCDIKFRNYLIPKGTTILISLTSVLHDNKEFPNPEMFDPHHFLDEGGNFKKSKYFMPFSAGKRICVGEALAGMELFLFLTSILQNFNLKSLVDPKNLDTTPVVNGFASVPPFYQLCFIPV
Chain of Peroxisome proliferator-activated receptor gamma/Nuclear receptor coactivator 2 (P37231 whole entry): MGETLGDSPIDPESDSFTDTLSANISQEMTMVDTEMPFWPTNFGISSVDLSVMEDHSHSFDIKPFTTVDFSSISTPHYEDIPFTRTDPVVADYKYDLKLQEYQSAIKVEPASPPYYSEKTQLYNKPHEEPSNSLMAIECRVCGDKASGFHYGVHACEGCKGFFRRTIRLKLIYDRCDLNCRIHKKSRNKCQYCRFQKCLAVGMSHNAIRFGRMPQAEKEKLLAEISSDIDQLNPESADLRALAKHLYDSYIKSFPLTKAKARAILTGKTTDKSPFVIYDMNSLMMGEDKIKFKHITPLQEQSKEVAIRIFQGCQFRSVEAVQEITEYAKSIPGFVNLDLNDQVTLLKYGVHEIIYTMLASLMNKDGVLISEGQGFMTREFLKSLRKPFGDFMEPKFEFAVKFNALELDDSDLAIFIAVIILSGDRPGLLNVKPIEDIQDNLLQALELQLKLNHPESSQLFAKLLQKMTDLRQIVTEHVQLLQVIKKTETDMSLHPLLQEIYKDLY
Chain of Peroxisome proliferator-activated receptor gamma/Nuclear receptor coactivator 2 (Q15596 whole entry, further chain): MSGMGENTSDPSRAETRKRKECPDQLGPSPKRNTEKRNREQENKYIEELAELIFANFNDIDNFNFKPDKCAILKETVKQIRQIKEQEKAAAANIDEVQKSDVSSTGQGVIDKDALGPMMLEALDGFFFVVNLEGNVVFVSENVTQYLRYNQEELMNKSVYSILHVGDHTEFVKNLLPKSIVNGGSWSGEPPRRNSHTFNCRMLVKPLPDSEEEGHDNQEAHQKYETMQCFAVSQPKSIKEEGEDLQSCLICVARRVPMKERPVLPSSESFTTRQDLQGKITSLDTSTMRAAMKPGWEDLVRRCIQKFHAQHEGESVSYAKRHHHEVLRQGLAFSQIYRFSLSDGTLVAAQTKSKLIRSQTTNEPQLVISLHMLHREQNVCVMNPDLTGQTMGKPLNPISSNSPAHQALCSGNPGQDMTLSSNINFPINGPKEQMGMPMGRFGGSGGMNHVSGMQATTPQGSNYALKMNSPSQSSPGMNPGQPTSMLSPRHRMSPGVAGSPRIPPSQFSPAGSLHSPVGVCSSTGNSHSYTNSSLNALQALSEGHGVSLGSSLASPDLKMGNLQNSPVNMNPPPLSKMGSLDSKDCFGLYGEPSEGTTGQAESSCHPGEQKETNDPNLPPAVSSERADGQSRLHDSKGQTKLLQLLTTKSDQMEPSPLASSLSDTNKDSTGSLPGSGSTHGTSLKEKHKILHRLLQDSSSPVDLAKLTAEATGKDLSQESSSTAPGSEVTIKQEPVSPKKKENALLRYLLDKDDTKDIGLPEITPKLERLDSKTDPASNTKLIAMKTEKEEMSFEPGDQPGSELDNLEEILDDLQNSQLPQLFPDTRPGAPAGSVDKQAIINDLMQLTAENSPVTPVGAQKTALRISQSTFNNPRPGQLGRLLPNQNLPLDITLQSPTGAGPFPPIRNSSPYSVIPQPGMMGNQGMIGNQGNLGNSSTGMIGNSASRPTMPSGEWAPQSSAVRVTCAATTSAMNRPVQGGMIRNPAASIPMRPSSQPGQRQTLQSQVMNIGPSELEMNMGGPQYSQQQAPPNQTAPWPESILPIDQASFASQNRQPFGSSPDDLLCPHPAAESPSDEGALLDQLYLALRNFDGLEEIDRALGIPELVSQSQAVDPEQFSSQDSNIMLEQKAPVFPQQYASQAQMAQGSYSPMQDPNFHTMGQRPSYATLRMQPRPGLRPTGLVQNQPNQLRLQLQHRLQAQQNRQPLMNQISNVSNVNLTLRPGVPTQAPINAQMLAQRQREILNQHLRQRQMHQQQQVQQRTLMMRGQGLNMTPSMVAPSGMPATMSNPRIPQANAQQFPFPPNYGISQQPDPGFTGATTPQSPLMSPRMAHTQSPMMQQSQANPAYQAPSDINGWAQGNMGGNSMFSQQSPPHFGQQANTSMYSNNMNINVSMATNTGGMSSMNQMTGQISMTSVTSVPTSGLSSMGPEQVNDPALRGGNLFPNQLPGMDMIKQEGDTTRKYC

Turning to `Oc1cccc(/C=N/Nc2cc(N3CCOCC3)nc(N3CCOCC3)n2)c1`, the IC50 was > 50 µM (not active) in test [1]; > 50 µM (not active) in [2]; > 99 µM (inactive) in test [3]; > 99 µM (inactive) on Caspase-3; 89.1 µM (active) in test [4]; 80.5 µM (active) in test [5].
For `COc1ccc(OC2C(O)COC2/C=C/c2ccccc2)cc1` (stereo unspecified), the AC50 at Cytochrome P450 3A4 was 3.16 µM (inconclusive) and 3.98 µM (inconclusive); at Cytochrome P450 2C9 it was 3.16 µM (inconclusive) and 2.51 µM (inconclusive).
With `O=C1C(Cl)=C(N2CCN(C/C=C/c3ccccc3)CC2)C(=O)N1c1ccc(C(F)(F)F)cc1`, the IC50 in [6] was > 50 µM (inconclusive).
Take `Cc1ccc(NC(=O)C2CCCN2S(=O)(=O)c2cccc3cccnc23)c(C)c1` (stereo unspecified): the CC50 in test [7] is 42.9 µM (active). Further, in the test “cells”, the IC50 was 1.86 µM (active).
As for `COC(=O)c1ccc(OC)c(S(=O)(=O)Nc2ccc3ccccc3c2)c1`, the half-inhibitory concentration (IC50) in [6] is > 10 µM (inconclusive); in test [8] it was > 10 µM (inactive).
`Cc1ccc(NS(=O)(=O)c2cccc(C(=O)OCC(=O)NCc3ccco3)c2)cc1`: on Estrogen receptor, the IC50 was 30.6 µM (not active).
Consider `COc1ccccc1/C=C/C(=O)N1CCc2cc(OC)c(OC)cc2C1C` (stereo unspecified), for which, in [7], the CC50 is > 50 µM (active). In “cells”, the IC50 was 17.8 µM (active).
Turning to `c1csc(Cc2nn3c(-c4n[nH]c5c4CCC5)nnc3s2)c1`, the EC50 in test [9], in [10] and in [11] was > 79.4 µM (not active) throughout. Moreover, the IC50 against Estrogen receptor beta [12] and against Estrogen receptor beta [13] was > 50 µM (not active) throughout.
